System: HT-29
Assay: Antiproliferative activity against human HT-29 cells
Format: functional, cell-based

| Compound | IC50 [µM] |
| --- | --- |
| C/C=C1/NC(=O)[C@H](CC(N)=O)NC(=O)/C(=C\C)NC(=O)[C@H](C(C)C)NC(=O)[C@H](O)[C@@H]([C@@H](C)CCCCCCCC)NC(=O)[C@@H]2CCCN2C(=O)[C@H](CC(N)=O)N(C)C(=O)[C@H]([C@@H](C)O)NC(=O)[C@@H](C)NC(=O)[C@H](CC(N)=O)NC1=O [MINUTISSAMIDE A] | 2 |
| C/C=C1/NC(=O)[C@H](CC(N)=O)NC(=O)/C(=C\C)NC(=O)[C@H](C(C)C)NC(=O)[C@H](O)[C@@H]([C@@H](C)CCCCCCCCCl)NC(=O)[C@@H]2CCCN2C(=O)[C@H](CC(N)=O)N(C)C(=O)[C@H]([C@@H](C)O)NC(=O)[C@@H](C)NC(=O)[C@H](CC(N)=O)NC1=O [MINUTISSAMIDE B] | 20 |
